Reference: patent US10793525B2, “13-cis-RAMBA retinamides that degrade MNKs for treating cancer” (UNIVERSITY OF MARYLAND, BALTIMORE, priority 2014, dated 2020)
Read-outs that look alike come from different tables or passages of the source.

Columns and labels:
[1] = system: LNCaP human prostate carcinoma cells; conditions: previously reported in Ramamurthy V et al., read-out: GI50s LNCaP; cited from earlier work
[2] = system: PC-3 human prostate carcinoma cells; conditions: PC-3 cells; previously reported in Ramamurthy V et al.; read-out: GI50s PC-3; cited from earlier work
[3] = system: CWR22Rv1 human prostate carcinoma cells; conditions: previously reported in Ramamurthy V et al., read-out: GI50s CWR22Rv1; cited from earlier work
[4] = system: MDA-MB-468 human breast cancer cells; assay: MTT cell proliferation assay, MDA-MB-468; format: cell-based; conditions: MDA-MB-468 cells, SEM < 10%, read-out: GI50s MDA-MB-468
Source text: (§1) MCF-7, MDA-MB-231, MDA-MB-468 and SKBR-3 human breast cancer cells and LNCaP, PC-3, and CWR22Rv1 human prostate carcinoma cells (American Type Culture Collection, Manassas, Va., USA) were maintained in RPMI 1640 media (Gibco-Life Technologies, Grand Island, N.Y., USA) supplemented with 10% fetal bovine serum and 1% penicillin/streptomycin. Western blotting was done as mentioned previously,^8, 13b using the following antibodies: AR, Bad, Bax, Bcl-2, eIF4E, Mnk1, Mnk-2, N-cadherin, PARP, peIF4E^ser209 purchased from Cell Signaling Technology, Danvers, Mass., USA. Anti-Mnk2 was purchased from Sigma-Aldrich and normal rabbit IgG, cyclin D1 was from Santa Cruz Biotechnology, CA, USA.
(§2) Cells were plated (2500 cells/well) in 96 well plates and treated with or without specified compounds as described previously.^8a, 12b
(§3) The clinically relevant retinoids, ATRA and 4-HPR and the Mnk inhibitor, cercosporamide were used as comparators in the assays.

[5] = system: MDA-MB-231 human breast cancer cells; assay: MTT cell proliferation assay, MDA-MB-231; format: cell-based; conditions: MDA-MB-231 cells, SEM < 10%, read-out: GI50s MDA-MB-231
Source text: as §1, §2, §3

[6] = system: SKBR-3 human breast cancer cells; assay: MTT cell proliferation assay, SKBR-3; format: cell-based; conditions: SK-BR-3, SKBR-3 cells, SEM < 10%, read-out: GI50s SKBR-3
Source text: as §1, §2, §3

[7] = system: MCF-7 human breast cancer cells; assay: MTT cell proliferation assay, MCF-7; format: cell-based; conditions: MCF-7 cells; for IC50: Homo sapiens, MCF7, MTT, SEM < 10%, read-out: GI50s MCF-7
Source text: as §1, §2, §3

[8] = system: CWR22Rv1 human prostate carcinoma cells; assay: MTT cell proliferation assay, CWR22Rv1; format: cell-based; conditions: SEM < 10%, read-out: GI50s CWR22Rv1
Source text: as §1, §2, §3
(§4) The PC-3 cell line was the least sensitive to all the compounds tested.

[9] = system: PC-3 human prostate carcinoma cells; assay: MTT cell proliferation assay, PC-3; format: cell-based; conditions: PC-3 cells, SEM < 10%, read-out: GI50s PC-3
Source text: as §1, §2, §3, §4

[10] = system: LNCaP human prostate carcinoma cells; assay: MTT cell proliferation assay, LNCaP; format: cell-based; conditions: SEM < 10%, read-out: GI50s LNCaP
Source text: as §1, §2, §3, §4

[11] = system: MCF-7, MDA-MB-231, MDA-MB-468 and SKBR-3 human breast cancer cells; assay: MTT cell proliferation assay, four breast cancer cell lines together; format: cell-based; conditions: range across the four BC cell lines, read-out: GI50s, range over the BC cell lines
Source text: as §1, §2, §3

Row | Structure (SMILES) | IC50 [4] [µM] | IC50 [5] [µM] | IC50 [6] [µM] | IC50 [7] [µM] | IC50 [8] [µM] | IC50 [9] [µM] | IC50 [10] [µM] | fold more potent than Compound 16 (GI50, MCF-7) ([7]; versus Compound 16) [fold] | IC50 [11] [µM] | melting point [°C] | IC50 [1] [µM] | IC50 [2] [µM] | IC50 [3] [µM]
1 | CC(O)(CS(=O)(=O)c1ccc(F)cc1)C(=O)Nc1ccc(C#N)c(C(F)(F)F)c1 (stereo not drawn) [Casodex] |  |  |  |  |  |  |  |  |  |  | 2.61 | 9.15 | 3.81
2 | CC1=C(/C=C/C(C)=C/C=C/C(C)=C\C(=O)Nc2ccc(O)cc2)C(C)(C)CCC1n1ccnc1 (stereo not drawn) [Compound 17, (2Z,4E,6E,8E)-9-(3-(1H-imidazol-1-yl)-2,6,6-trimethylcyclohex-1-en-1-yl)-N-(4-hydroxyphenyl)-3,7-dimethylnona-2,4,6,8-tetraenamide] | 6.83 | 13.1 | 3.89 | 1.99 | 3.89 | 11.7 | 3.54 |  |  |  |  |  | 
3 | CC1=C(/C=C/C(C)=C/C=C/C(C)=C\C(=O)Nc2ccccc2O)C(C)(C)CCC1n1ccnc1 (stereo not drawn) [Compound 18, (2Z,4E,6E,8E)-9-(3-(1H-imidazol-1-yl)-2,6,6-trimethylcyclohex-1-en-1-yl)-N-(2-hydroxyphenyl)-3,7-dimethylnona-2,4,6,8-tetraenamide] | 3.03 | 4.67 | 3.89 | 1.09 | 2.23 | 15.5 | 3.23 |  |  |  |  |  | 
4 | CC1=C(/C=C/C(C)=C/C=C/C(C)=C\C(=O)NCc2ccccc2)C(C)(C)CCC1n1ccnc1 (stereo not drawn) [Compound 21, (2Z,4E,6E,8E)-9-(3-(1H-imidazol-1-yl)-2,6,6-trimethylcyclohex-1-en-1-yl)-N-benzyl-3,7-dimethylnona-2,4,6,8-tetraenamide] | 7.24 | 5.88 | 10.7 | 9.77 |  |  |  |  | 5.88 to 10.7 |  |  |  | 
5 | CC1=C(/C=C/C(C)=C/C=C/C(C)=C\C(=O)Nc2ccccc2)C(C)(C)CC=C1c1cccnc1 [Compound 35, (2Z,4E,6E,8E)-3,7-dimethyl-N-phenyl-9-(2,6,6-trimethyl-3-(pyridin-3-yl)cyclohexa-1,3-dien-1-yl)nona-2,4,6,8-tetraenamide] | 39.8 | 25.1 | 47.4 | 8.32 |  |  |  |  |  |  |  |  | 
6 | CC1=C(/C=C/C(C)=C/C=C/C(C)=C\C(=O)NCCc2ccc(O)cc2)C(C)(C)CC=C1c1cccnc1 [Compound 37, (2Z,4E,6E,8E)-N-(4-hydroxyphenethyl)-3,7-dimethyl-9-(2,6,6-trimethyl-3-(pyridin-3-yl)cyclohexa-1,3-dien-1-yl)nona-2,4,6,8-tetraenamide] | 50.1 | 26.9 | 42.2 | 8.75 |  |  |  |  |  | 110 to 112 |  |  | 
7 | CC1=C(/C=C/C(C)=C/C=C/C(C)=C\C(=O)NCc2ccc(O)cc2)C(C)(C)CC=C1c1cncnc1 [Compound 39, (2Z,4E,6E,8E)-N-(4-hydroxybenzyl)-3,7-dimethyl-9-(2,6,6-trimethyl-3-(pyrimidin-5-yl)cyclohexa-1,3-dien-1-yl)nona-2,4,6,8-tetraenamide] | 19.1 | 11.5 | 11.5 | 4.96 |  |  |  |  |  | 145 to 147 |  |  | 

More lines, main results first:

Row | IC50 [4] [µM] | IC50 [5] [µM] | IC50 [6] [µM] | IC50 [7] [µM] | IC50 [8] [µM] | IC50 [9] [µM] | IC50 [10] [µM] | fold more potent than Compound 16 (GI50, MCF-7) ([7]; versus Compound 16) [fold] | IC50 [11] [µM] | melting point [°C] | Structure (SMILES) | IC50 [1] [µM] | IC50 [2] [µM] | IC50 [3] [µM]
8 | 6.02 | 11.1 | 3.98 | 4.65 |  |  |  |  |  |  | CC1=C(/C=C/C(C)=C/C=C/C(C)=C/C(=O)Nc2ccc(O)cc2)C(C)(C)CCC1 [Compound 4-HPR, N-(4-hydroxyphenyl) retinamide, reference compound] | 2.69 | 3.54 | 3.23
9 | 4.57 | 4.95 | 25.1 | 0.4 |  | 30.2 | 3.89 | ~4.8 |  |  | CC1=C(/C=C/C(C)=C/C=C/C(C)=C\C(=O)Nc2ccc(F)cc2)C(C)(C)CCC1n1ccnc1 (stereo not drawn) [Compound 19, (2Z,4E,6E,8E)-9-(3-(1H-imidazol-1-yl)-2,6,6-trimethylcyclohex-1-en-1-yl)-N-(4-fluorophenyl)-3,7-dimethylnona-2,4,6,8-tetraenamide] |  |  | 
10 | 2.45 | 1.41 | 5.5 | 1.93 |  |  |  |  |  | 93 to 95 | CC1=C(/C=C/C(C)=C/C=C/C(C)=C\C(=O)NCc2ccc(F)cc2)C(C)(C)CCC1n1ccnc1 (stereo not drawn) [Compound 23, (2Z,4E,6E,8E)-9-(3-(1H-imidazol-1-yl)-2,6,6-trimethylcyclohex-1-en-1-yl)-N-(4-fluorobenzyl)-3,7-dimethylnona-2,4,6,8-tetraenamide] |  |  | 
11 | 2.45 | 1.65 | 5.5 | 1.81 |  |  |  |  |  |  | CC1=C(/C=C/C(C)=C/C=C/C(C)=C\C(=O)NCc2cccc(F)c2)C(C)(C)CCC1n1ccnc1 (stereo not drawn) [Compound 24, (2Z,4E,6E,8E)-9-(3-(1H-imidazol-1-yl)-2,6,6-trimethylcyclohex-1-en-1-yl)-N-(3-fluorobenzyl)-3,7-dimethylnona-2,4,6,8-tetraenamide] |  |  | 
12 | 13.5 | 2.88 | 1.41 | 1.9 |  |  |  |  |  | 126 to 128 | CC1=C(/C=C/C(C)=C/C=C/C(C)=C\C(=O)NCCc2ccc(O)cc2)C(C)(C)CCC1n1ccnc1 (stereo not drawn) [Compound 25, (2Z,4E,6E,8E)-9-(3-(1H-imidazol-1-yl)-2,6,6-trimethylcyclohex-1-en-1-yl)-N-(4-hydroxyphenethyl)-3,7-dimethylnona-2,4,6,8-tetraenamide] |  |  | 
13 |  |  |  |  |  |  |  |  |  | 124 to 126 | CC1=C(/C=C/C(C)=C/C=C/C(C)=C\C(=O)NCc2ccc(O)cc2)C(C)(C)CC=C1c1cccnc1 [Compound 36, (2Z,4E,6E,8E)-N-(4-hydroxybenzyl)-3,7-dimethyl-9-(2,6,6-trimethyl-3-(pyridin-3-yl)cyclohexa-1,3-dien-1-yl)nona-2,4,6,8-tetraenamide] |  |  | 
14 | 22.9 | 26.9 | 31 | 7.01 |  |  |  |  |  | 105 to 107 | CC1=C(/C=C/C(C)=C/C=C/C(C)=C\C(=O)Nc2ccccc2)C(C)(C)CC=C1c1cncnc1 [Compound 38, (2Z,4E,6E,8E)-3,7-dimethyl-N-phenyl-9-(2,6,6-trimethyl-3-(pyrimidin-5-yl)cyclohexa-1,3-dien-1-yl)nona-2,4,6,8-tetraenamide] |  |  | 
15 | 23.4 | 14.5 | 24 | 2.96 |  |  |  |  |  | 115 to 117 | CC1=C(/C=C/C(C)=C/C=C/C(C)=C\C(=O)NCCc2ccc(O)cc2)C(C)(C)CC=C1c1cncnc1 [Compound 40, (2Z,4E,6E,8E)-N-(4-hydroxyphenethyl)-3,7-dimethyl-9-(2,6,6-trimethyl-3-(pyrimidin-5-yl)cyclohexa-1,3-dien-1-yl)nona-2,4,6,8-tetraenamide] |  |  | 
